Results taken from PMC4084896 (PLoS ONE, 2014).

Assays:
CYP1A1 protein = CYP1A1 protein in primary human hepatocytes (western blot); assay type: cell-based; details: cultures HH52, HH54, Hep220770, 48 h
Procedure: Cells were cultured in serum-free medium.
Total protein extracts were prepared from cells on 6-well plates. Cells were washed twice with ice-cold PBS and scraped into 1 ml of PBS. The suspension was centrifuged (4500 RPM/5 min/4°C) and the pellet was resuspended in 150 µl of ice-cold lysis buffer (150 mM NaCl; 10 mM Tris pH 7.2; 0.1% (w/v) SDS; anti-protease cocktail, 1% (v/v) Triton X-100; anti-phosphatase cocktail, 1% (v/v) sodium deoxycholate; 5 mM EDTA). The mixture was vortexed and incubated for 10 min on ice and then centrifuged (15000 RPM/13 min/4°C). Supernatant was collected and the protein content was determined by the Bradford reagent. SDS–PAGE gels (10%) were run on a BioRad apparatus according to the general procedure followed by the protein transfer onto PVDF membrane. The membrane was saturated with 5% non-fat dried milk for 1 h at room temperature. Blots were probed with primary antibodies against CYP1A1 (goat polyclonal, sc-9828, G-18, dilution 1∶500), CYP1A2 (mouse monoclonal, sc-374228, G-4, dilution 1∶2000), actin (goat polyclonal; sc-1616, 1–19, dilution 1∶2000), all purchased from Santa Cruz Biotechnology (Santa Cruz, CA, USA). Chemiluminescent detection was performed using horseradish peroxidase-conjugated secondary antibodies (Santa Cruz Biotechnology) and Western blotting Luminol kit (Santa Cruz Biotechnology).

CYP1A1 mRNA [1] = details: HepG2, TCDD 5 nM, 24 h, vs vehicle
[2] = target: T1, aryl hydrocarbon receptor AhR (Homo sapiens, UniProt P35869); assay: AhR gene reporter assay in AZ-AHR cells, agonist mode; assay type: cell-based; details: 5 nM TCDD, four passages
T1 construct: endogenous in cells; host or cells: AZ-AHR (stably transfected reporter line derived from HepG2)
T1 sequence (P35869 11-848): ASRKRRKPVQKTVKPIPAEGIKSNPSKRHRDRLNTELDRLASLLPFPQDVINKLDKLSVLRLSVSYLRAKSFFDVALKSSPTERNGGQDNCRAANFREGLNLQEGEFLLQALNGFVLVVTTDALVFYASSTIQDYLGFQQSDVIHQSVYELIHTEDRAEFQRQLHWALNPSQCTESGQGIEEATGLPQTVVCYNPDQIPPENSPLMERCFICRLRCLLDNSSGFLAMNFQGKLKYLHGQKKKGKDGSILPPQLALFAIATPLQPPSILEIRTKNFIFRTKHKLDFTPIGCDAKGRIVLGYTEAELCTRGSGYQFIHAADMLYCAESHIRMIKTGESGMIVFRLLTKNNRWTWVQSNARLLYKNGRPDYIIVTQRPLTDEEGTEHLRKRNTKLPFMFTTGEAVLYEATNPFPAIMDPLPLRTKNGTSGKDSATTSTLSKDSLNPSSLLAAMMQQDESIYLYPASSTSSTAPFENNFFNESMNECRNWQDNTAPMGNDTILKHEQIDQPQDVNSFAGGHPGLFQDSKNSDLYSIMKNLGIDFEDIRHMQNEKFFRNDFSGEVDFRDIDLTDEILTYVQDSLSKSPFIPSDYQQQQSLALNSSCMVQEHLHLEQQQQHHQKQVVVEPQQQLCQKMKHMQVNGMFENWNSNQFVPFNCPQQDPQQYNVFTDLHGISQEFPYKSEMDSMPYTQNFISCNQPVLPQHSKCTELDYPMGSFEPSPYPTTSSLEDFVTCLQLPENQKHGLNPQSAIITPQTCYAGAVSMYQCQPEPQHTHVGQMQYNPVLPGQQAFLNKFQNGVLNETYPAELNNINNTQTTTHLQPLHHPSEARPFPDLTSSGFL
Text: A stably transfected gene reporter cell line AZ-AHR, derived from human hepatoma HepG2 cells transfected with a construct containing several AhR binding sites upstream of a luciferase reporter gene, was used for assessment of AhR transcriptional activity. A stably transfected gene reporter cell line AZ-GR, derived from human cervix carcinoma HeLa cells transfected with a construct containing several GR response elements upstream of a luciferase reporter gene, was used for assessment of GR transcriptional activity. Cells were incubated for 24 h with tested compounds and/or vehicle (DMSO; 0.1% v/v), in the presence or absence of TCDD (5 nM; AZ-AHR cells) or DEX (100 nM; AZ-GR cells). After the treatments, cells were lysed and luciferase activity was measured. In parallel, cell viability was determined by conventional MTT test.
Gene reporter assays were performed in two different experimental layouts. In agonist mode, cells were treated with increasing concentrations of tested compounds, and the half-maximal effective concentrations (EC50) were calculated.

CYP1A1 mRNA [3] = assay: in vitro; details: human, 24 h
Text: (§1) Primary human hepatocytes used in this study were obtained from two sources: (i) from multiorgan donors LH52 (female; 60 years) and LH54 (person), when: a) Tissue acquisition protocol was in accordance with the requirements issued by “Ethical Committee of the Faculty Hospital Olomouc, Czech Republic” and with Transplantation law #285/2002 Sb., b) “Ethical Committee of the Faculty Hospital Olomouc, Czech Republic” approved the study and the use of primary human hepatocytes for research presented in the current paper., c) The consent from the next of kin of the donor was waived by “Ethical Committee of the Faculty Hospital Olomouc, Czech Republic”; (ii) long-term human hepatocytes in monolayer Batch HEP220770 (person), Batch HEP220774 (person) (purchased from Biopredic International, Rennes, France). Cells were cultured in serum-free medium. Cultures were maintained at 37°C and 5% CO2 in a humidified incubator.
(§2) Total RNA was isolated using TRI Reagent (Molecular Research Center, Cincinnati, OH, USA). cDNA was synthesized from 1000 ng of total RNA using M-MLV Reverse Transcriptase (Finnzymes, Espoo, Finland) at 42°C for 60 min in the presence of random hexamers (Takara, Shiga, Japan). qRT-PCR was carried out using LightCycler FastStart DNA MasterPLUS SYBR Green I (Roche Diagnostic Corporation, Prague, Czech Republic) on a Light Cycler 480 II apparatus (Roche Diagnostic Corporation). CYP1A1, CYP1A2, tyrosine aminotransferase (TAT) and GAPDH mRNAs were determined as described previously, [16]. Measurements were performed in triplicates. Gene expression was normalized to GAPDH as a housekeeping gene.

CYP1A2 mRNA = assay: in vitro; details: human, 24 h
Text: as §1, §2

[4] = test system: CYP1A1/1A2 catalytic activity (EROD); assay: EROD assay in primary human hepatocytes; assay type: cell-based; details: culture Hep220774, TCDD 5 nM, 24 h
Procedure: Cells were treated for 24 h with tested compounds.
The cells were treated for 24 h with (+)-KET, (−)-KET and commercial rac-KET (1 µM, 30 µM, 50 µM), and with TCDD (5 nM) and vehicle (DMSO; 0.1% V/V). […] In the cytotoxicity assay, we found all forms of KET highly toxic against human hepatocytes at the concentration 50 µM.

[5] = female, culture HH52, TCDD 5 nM
[6] = female, culture Hep220770, TCDD 5 nM

With `Clc1cc2c(cc1Cl)Oc1cc(Cl)c(Cl)cc1O2` [TCDD, 2,3,7,8-tetrachlorodibenzo-p-dioxin] the “CYP1A1 protein induction (in words)” value (CYP1A1 protein) was “drastic increase”, the “CYP1A1 mRNA induction” value (CYP1A1 mRNA [1]) was “approximately 500 fold” and the “average induction of AhR-dependent luciferase activity” value [2] was 435 fold. For the same compound, the fold induction (CYP1A1 mRNA [3]; [5]) was 53, the fold induction (CYP1A1 mRNA [3]; [6]) was 1840 and the fold induction (CYP1A1 mRNA [3]; male, culture HH54, TCDD 5 nM) was 101. For the same compound, the fold induction (CYP1A2 mRNA; [5]) was 79, the fold induction (CYP1A2 mRNA; [6]) was 219 and the fold induction (CYP1A2 mRNA; male, culture HH54, TCDD 5 nM) was 30. For the same compound, the “induction of EROD activity” value [4] was “approximately 15 fold”.
